Assay results from patent publication US20250339389A1, “N-ARACHIDONOYL ETHANOLAMINE COMPOSITION AND USE THEREOF” (NANJING NUTRABUILDING BIO-TECH CO., LTD., priority 2023, published 2025).

What was measured:
Salmonella = test: Relative abundance of Salmonella in feces of high-fat diet mice (16S rDNA sequencing); format: in vivo; details: obese mice induced by high-fat diet, AEA 20 mg/kg once a day, four weeks
Description: (§1) After a week of adaptive feeding, mice were randomly divided into three groups according to sex and weight: group 1, normal group, n=10; group 2, high-fat diet group, n=10; and group 3, high-fat diet+AEA group, n=10. The normal group was given normal feed, while the high-fat diet group was given high-fat and high-sugar feed (containing 35% fat, 18% protein and 47% carbohydrate), and the high-fat diet+AEA group was given high-fat and high-sugar feed containing AEA (20 mg/kg), for four weeks. The specific gavage scheme is: calculate and gavage once a day according to the weight of mice, while the normal group gavage with the same amount of normal saline. Four samples of mouse feces were randomly taken from each group. The samples were first extracted for DNA, 16S rDNA was amplified by PCR, and then sequenced, and the relative abundance of each strain was analyzed.
(§2) FIG. 2 is a graph showing changes in the relative abundance of Roseburia. […] FIG. 3 is a graph showing changes in the relative abundance of Bacteroides. […] After AEA treatment, the level of Bacteroides in obese mice induced by high-fat diet increased by 20%. FIG. 4 is a graph showing changes in the relative abundance of Prevotella. […] After AEA treatment, the level of Prevotella in obese mice induced by high-fat diet increased by 25%. FIG. 5 is a graph showing changes in the relative abundance of Salmonella. […]

Escherichia coli = test: Relative abundance of Escherichia coli in feces of high-fat diet mice (16S rDNA sequencing); format: in vivo; details: obese mice induced by high-fat diet, AEA 20 mg/kg once a day, four weeks
Description: as §1, §2

Bacteroides/Firmicutes = test: Relative abundance ratio of Bacteroides and Firmicutes in feces of high-fat diet mice (16S rDNA sequencing); format: in vivo; details: obese mice induced by high-fat diet, AEA 20 mg/kg once a day, four weeks
Description: as §1
Abundance ratio of Bacteroides and Firmicutes: Bacteroides is the representative of intestinal probiotics and Firmicutes is the representative of intestinal harmful bacteria. The higher the ratio, the healthier the intestinal flora is.

Prevotella = test: Relative abundance of Prevotella in feces of high-fat diet mice (16S rDNA sequencing); format: in vivo; details: obese mice induced by high-fat diet, AEA 20 mg/kg once a day, four weeks
Description: as §1, §2

[1] = system: mood and depressive behavior; test: Forced swimming test; format: in vivo, C57BL/6J mice; details: AEA 20 mg/kg/day
Description: (§3) Experimental materials: The experimental animals used in this experiment are male C57BL/6J mice, 6 weeks old, with an initial weight of 18-22 g and SPF grade. The feeding environment of the mice is room temperature of 22±1° C. and humidity of 55±10%, and the mice are fed with normal feed. Mice were randomly divided into blank control group and AEA group, with 10 mice in each group. The AEA group was given a dose of 20 mg/kg/day, while the blank control group was given distilled water of the same volume.
(§4) Experimental method: Tail suspension test and forced swimming test were used to evaluate mood and depressive behavior. Forced swimming test: put a single mouse into a beaker and keep the water temperature at (25±2)° C. The experiment lasted for 6 min, and the immobility time of mice within 4 min was calculated. Tail suspension test: a mouse was fixed at the back ⅓ of the tail end with adhesive tape and hung upside down on an iron bar, with its head 10 cm away from the bottom of the box. The experiment lasted for 6 min, and the immobility time of mice within 4 min was calculated.

Bacteroides = test: Relative abundance of Bacteroides in feces of high-fat diet mice (16S rDNA sequencing); format: in vivo; details: obese mice induced by high-fat diet, AEA 20 mg/kg once a day, four weeks
Description: as §1, §2

acute colitis model = test: DSS-induced acute colitis model, disease activity index (DAI); format: in vivo, mice; details: 3% DSS for 9 days, AEA daily dose 2.5 mg/kg; model group close to 3
Source text: Experimental method: Thirty 4-6-week-old mice, 15 males and 15 females, were selected for adaptive feeding for 7 days in advance. They were randomly divided into control group (CON), model group (DSS) and administration group (DSS+AEA), with 10 mice in each group. The model group and the administration group were gavaged with 3% dextran sodium sulfate (DSS) for 9 days to establish an acute colitis model, while the control group was gavaged with the same amount of normal saline every day. The weight, feces and rectal bleeding of mice were recorded every day, and the disease activity index (DAI) was used to evaluate the condition of colitis. The DAI value was obtained by adding all the scores and dividing them by three. Mice in the administration group were given AEA at a daily dose of 2.5 mg/kg. On the 10th day, blood was taken from the orbit of each mouse, and then it was killed. Colon tissues were collected, fixed in 4% paraformaldehyde solution and stored at −80° C. for subsequent analysis. The pathological damage of colon tissue was examined by hematoxylin-eosin staining and Alxin blue staining.

Roseburia = test: Relative abundance of Roseburia in feces of high-fat diet mice (16S rDNA sequencing); format: in vivo; details: high-fat+AEA group, AEA 20 mg/kg once a day, four weeks
Description: as §1, §2

[2] = system: mood and depressive behavior; test: Tail suspension test; format: in vivo, C57BL/6J mice; details: AEA 20 mg/kg/day
Description: as §3, §4

[3] = system: mechanical pain sensitivity; test: SNL model (L5 spinal nerve ligation), Von Frey mechanical pain sensitivity; format: in vivo, ICR mice
Description: Experimental material: The experimental animals used in this experiment are male ICR mice, with an initial weight of 30±2 g and SPF grade. The feeding environment of the mice is room temperature of 22±2° C., and the humidity is controlled at 70%-80%. Mice were free to drink water and eat, and fed with normal feed.
Experimental method: Preparation of animal model: Establishment of SNL model of ligation of the fifth spinal nerve on the left lumbar vertebra in mice: After the animals were anesthetized with isoflurane, the L5 transverse process on the left back was exposed, the L5 nerve was dissociated and ligated with No.6 ophthalmic thread, and the wound was treated with penicillin and then sutured. In Sham group, only L5 transverse process was exposed without nerve ligation. After the model was established, the behavior of mice was observed, and the individuals with impaired motor behavior were excluded. […] Grouping and administration: Mice were randomly divided into Sham group, model group and AEA group (20 mg/kg/day), with 8 mice in each group. The three groups were administered by gavage for 16 d, wherein the Sham group and model group were given the same volume of distilled water by gavage. Von Frey method was used to detect the mechanical pain sensitivity of mice: after administration, the mice were placed in an organic glass box in a quiet room to adapt for 1.5 h, so that the mice were in a resting state. Von Frey fibers were used to continuously stimulate the L5 nerve reflex area on the sole of the operated hind limb for 3˜4 s, and the test was conducted for 4 times, with an interval of 5 min each time, and the threshold of 50% mechanical foot retraction of the hind paw was recorded.

CCCCC/C=C\C/C=C\C/C=C\C/C=C\CCCC(=O)NCCO [AEA, N-arachidonoyl ethanolamine]
decrease of Salmonella level after AEA treatment (Salmonella): 20%
decrease of level of Escherichia coli after AEA treatment (Escherichia coli): 42%
ratio of Bacteroides/Firmicutes (Bacteroides/Firmicutes): increased after AEA administration, which was close to the level of normal group
increase of level of Prevotella after AEA treatment (Prevotella): 25%
reduction of immobility time compared with the blank group, forced swimming test [1]: 23%
increase of level of Bacteroides after AEA treatment (Bacteroides): 20%
DAI score (acute colitis model): about 2
level (relative abundance) of Roseburia (Roseburia): close to that in normal mice
reduction of immobility time compared with the blank group, tail suspension test [2]: 28%
threshold of 50% foot contraction ([3]; administration 1 d, AEA 20 mg/kg/day by gavage, SNL model 0.005 ± 0.002): 0.010 ± 0.010
threshold of 50% foot contraction ([3]; administration 6 d, AEA 20 mg/kg/day by gavage, SNL model 0.019 ± 0.008): 0.067 ± 0.013
threshold of 50% foot contraction ([3]; administration 11 d, AEA 20 mg/kg/day by gavage, SNL model 0.018 ± 0.018): 0.133 ± 0.023
threshold of 50% foot contraction ([3]; administration 16 d, AEA 20 mg/kg/day by gavage, SNL model 0.020 ± 0.018): 0.193 ± 0.002
threshold of 50% foot contraction compared with the SNL model (in words) ([3]; after 6 days of administration, AEA 20 mg/kg/day by gavage): increased significantly
threshold of 50% foot contraction ([3]; before modeling (baseline)): 0.323 ± 0.040
